Read-outs that look alike come from different tables or passages of the source.
How the values were obtained:
[1] = DPPH radical scavenging assay; type: biochemical; set-up: DPPH517nm % SA ± SD: dose or concentration left out as unconfirmed; conditions: for DPPH517nm % SA ± SD: mean of three measurements
Source text: (§1) Three in vitro antioxidant assays (DPPH, FRAP, and ABTS) were utilized to evaluate the antioxidant property of the synthesized compounds. The DPPH (α, α-diphenyl-β-picrylhydrazyl) assay is the well-known approach to determine antioxidant activity using a stable free radical DPPH, measure the absorbance change, and calculate the absorbance change in the percentage of scavenging activity. […] For example, the ferric-tripyridyltriazine (Fe^3+-TPTZ, colorless) complex is reduced to ferrous tripyridyltriazine (Fe^2+-TPTZ) at low pH and introduces a blue color with maximum absorption at 593 nm. The change in absorbance is related to antioxidant activity. However, a significant limitation of these in vitro tests is the non-physiological measurement conditions (no enzymatic condition and no transition metal ion chelating activity); therefore, the results obtained may not reflect the antioxidant activity of the source material under the biological conditions that exist in humans and animals. The ABTS assay involves a more drastic radical that is chemically produced. The use of ABTS for antioxidant activity determination of hydrophilic and lipophilic pure compounds has attracted interest due to its solubility in organic and aqueous media and stability in a wide pH range [31].
The DPPH method was followed and modified from a previous study. Trolox was used as a reference. The DPPH stock solution at a concentration of 0.625 mM was prepared in 50% ethanol and kept at 4 °C in the dark. On the day of the experiment, 0.208 mM fresh DPPH working solution was freshly prepared by further diluting with 50% ethanol. […] Each reaction was carried out in a 96-well plate, and 100 μL of test preparation and DPPH solution were added. The 96-well plate was then shaken well for 10 min and kept in the dark at room temperature for 20 min, and the absorbance was recorded at 515–517 nm. According to the method described, delocalization also results in a deep violet color and is quantified as a percentage of scavenging activity. % scavenging activity (SA) = 100 × (Asample − Ablank)/(Acontrol − Ablank)(1) where Acontrol and Asample are the absorbances of the test DPPH without and with a sample, respectively. Ablank is the absorbance of the solvent used. The EC50 values were calculated from the relationship curve of %SA versus sample concentration. The experiment was carried out at least in triplicate.

[2] = FRAP (ferric reducing antioxidant power) assay; type: biochemical; conditions: Trolox equivalent
Source text: as §1
The FRAP assay is a method for assessing antioxidant power. Briefly, the FRAP reagent was prepared from acetate buffer pH 3.6, 10 mM TPTZ solution in 40 mM HCl and 20 mM FeCl3.6 H2O in relative proportions of 10:1:1, v/v, respectively. The FRAP reagent was freshly prepared daily. A solution of 5 μL of the sample (3–300 μM, approx.) was mixed with 180 μL of the FRAP reagent in a 96-well plate. The mixture was shaken in the dark for 10 min and incubated at 37 °C for 20 min, and the absorbance was determined at 593 nm. The solution without the sample was used as a blank. All determinations were made in triplicate. Trolox was used as a standard antioxidant and plot the calibration curve between absorbance and concentration. Quercetin was applied as the reference compound. The FRAP values were calculated by comparing the absorbance change in the test sample and represented in μM of Trolox equivalent per μM of sample.

[3] = ABTS radical cation scavenging assay; type: biochemical
Source text: as §1
The ABTS assay was prepared by reaction of 5 mL of a 7 mM aqueous ABTS (2,2′-azino-bis (3-ethylbenzthiazoline-6-sulphonic acid) solution and 2.45 mM potassium persulfate solution (K2S2O8). After preparation and storage in the dark for 16 h, the radical cation solution was further diluted in ethanol to absorb about 0.7 at 734 nm. Trolox and test sample solutions were prepared in stock solution with DMSO and diluted with ethanol. A solution of 100 μL of the sample was mixed with 100 μL of the ABTS reagent in a 96-well plate. The mixture was shaken in a dark place for 10 min and incubated at 37 °C for 20 min, and the absorbance was determined at 734 nm. Absorbance determinations were recorded immediately and not more than 1 h after adding the reagent. The solution without the sample was used as a blank. All the determinations were made in triplicate. The sample’s scavenging percentage was calculated from this equation: scavenging percentage = (Absorbance control − Absorbance sample) × 100/Absorbance control. EC50 values were calculated from the relationship curve of %scavenging versus sample concentration.

[4] = MTT cytotoxicity assay, HEK293 cells; type: cell-based; conditions: human, HEK293 cells, 100 μM; for viability at 24 h, 100 µM: read-out: % Viability ± SD (at 100 μM) HEK293 24 h; for viability at 48 h, 100 µM: read-out: % Viability ± SD (at 100 μM) HEK293 48 h
Experimental: (§2) HEK293, HACAT, and HeLa cells were grown in modified Eagles’ minimum essential medium (EMEM, Gibco) with 10% fetal bovine serum (FBS, Gibco), 1% of 100 U/mL streptomycin and 100 U/mL penicillin (Gibco). Cells were seeded in culture flasks and maintained in an incubator at 37 °C in a humidified atmosphere with 5% CO2. After reaching 80–90% of confluence, cells were detached by incubation with 0.25% trypsin-0.2% EDTA (Gibco) for 5 min and plated for experiments.
(§3) This study examined cell cultures of HEK293, HACAT, and HeLa cells. The cytotoxicity of the test samples was carried out by the MTT (3-(4,5-dimethylthiazol-2-yl)-2,5-diphenyltetrazolium bromide) assay. The cells were seeded in 96-well microliter plates (2.0 × 10^4 cells/well). Stock solutions of the test compounds were prepared in DMSO. After 24 h, cells were treated with different concentrations of samples and diluted with media to obtain the final desired concentration. The treated cells were then incubated at 37 °C and 5% CO2 for 24 and 48 h. After incubation, the medium was replaced with 0.05% w/v of MTT solution in PBS and further incubated for 3 h. The solution was then discarded and DMSO was added to dissolve the formed formazan crystals. Each well’s absorbance (A) was measured at 570 nm using a microplate reader (FLUOstar Omega^TM, BMG Labtech, Ortenberg, Germany). All experiments were carried out in triplicate and repeated for at least three experiments.

[5] = MTT cytotoxicity assay, HACAT cells; type: cell-based; conditions: human; for viability at 24 h, 100 µM: read-out: % Viability ± SD (at 100 μM) HACAT 24 h; for viability at 48 h, 100 µM: read-out: % Viability ± SD (at 100 μM) HACAT 48 h
Experimental: as §2, §3

HeLa cell = assay: MTT anticancer activity assay, HeLa cells; type: cell-based
Experimental: as §2, §3

HEK293 cells = assay: MTT cytotoxicity assay, HEK293 cells; type: cell-based; conditions: 24 and 48 h treatment
Experimental: as §2, §3

HeLa cells = assay: Cellular ROS assay (ROS deep red fluorescence kit); type: cell-based; conditions: pretreatment 50, 100, 150 μM for 24 h; 5 mM H2O2 30 min
Experimental: ROS is the main contributor to cell death. These reactive molecules are formed by several mechanisms and can be detected by various techniques. In order to investigate the level of cellular ROS after treatment with compounds, the accumulation of intracellular ROS in cells was quantified with a cellular ROS assay kit (ab186029, Abcam, Boston, USA) fluorescence assay. After pretreatment with 2f, 2j, and 3i at 50, 100, and 150 μM for 24 h, cell stress was induced with 5 mM hydrogen peroxide for 30 min. The cells in each well were collected and resuspended with a serum-free medium containing the ROS red probe. Subsequently, cells were incubated at 37 °C for 30 min in the dark, and fluorescence was read at Ex/Em = 650/675 nm.
In this study, Hela cells were seeded overnight at 20,000 cells/90 µL/well in a black wall/clear bottom 96-well plate. Cells included those untreated (control) and those pre-treated with compounds at various concentrations (50, 100, 150 μM) for 24 h. The ROS deep red assay solution (100 μL/well) was added and incubated at 5% CO2, 37 °C incubator for 30 min. The fluorescence signal was monitored at Ex/Em = 650/675 nm (cut off = 665 nm) with bottom read mode within 30 min (cellular ROS assay kit, ab186029, abcam).

[6] = Homo sapiens, 48 h, read-out: % Viability ± SD (at 100 μM) HeLa 48 h
[7] = Homo sapiens, 24 h, read-out: % Viability ± SD (at 100 μM) HeLa 24 h

SMILES | melting point | EC50 ([1]; read-out: DPPH517nm EC50 ± SD) | EC50 ([3]; read-out: ABTS734nm EC50 ± SD) | DPPH517nm % SA ± SD [1] | FRAP593nm Value ± SD (TE) [2] | ABTS734nm % Scavenging at 500 µM [3] | viability at 24 h, 100 µM [4] | viability at 48 h, 100 µM [4] | viability at 24 h, 100 µM [5] | viability at 48 h, 100 µM [5] | Anticancer activity on cervical cancer cells (HeLa cell; HeLa, 24 h) | IC50 (HeLa cell; Homo sapiens, HeLa, 24 h) | viability at 100 µM (HeLa cell; [6]) | viability at 100 µM (HeLa cell; [7]) | Toxicity in HEK293 cells (HEK293 cells) | IC50 (HeLa cell; 24 h) | Cellular ROS fluorescence intensity vs H2O2-treated cells (HeLa cells)
COc1cccc(C(=O)c2c(-c3cccc(OC)c3)oc3cc(O)ccc3c2=O)c1 [2g, 7-Hydroxy-3-(3-methoxybenzoyl)-2-(3-methoxyphenyl)-4H-chromen-4-one] | 253 to 254 °C | – | – | 18.32 ± 0.40% | 0.02 ± 0.008 µM Trolox/1 µM of Synthesized Compounds | 11.52 ± 3.56% | 79.1 ± 0.9% | 76.7 ± 1.16% | 81.5 ± 5.17% | 78.4 ± 5.44% | contained anticancer activity | 172.7 ± 1.66 µM | 46.3 ± 1.14% | – | – | – | –
COc1ccc(C(=O)c2c(-c3ccc(OC)cc3)oc3cc(O)ccc3c2=O)cc1 [2h, 7-hydroxy-3-(4-methoxybenzoyl)-2-(4-methoxyphenyl)-4H-chromen-4-one] | 300 to 301 °C | – | – | 12.57 ± 6.18% | 0.06 ± 0.024 µM Trolox/1 µM of Synthesized Compounds | 6.55 ± 4.19% | 77.2 ± 1.93% | 73.1 ± 0.79% | 75.2 ± 7.39% | 71.8 ± 3.27% | – | – | 64.2 ± 0.76% | 84.9 ± 2.55% | – | – | –
O=C(c1ccc([N+](=O)[O-])cc1)c1c(-c2ccc([N+](=O)[O-])cc2)oc2cc(O)ccc2c1=O [2i, 7-hydroxy-3-(4-nitrobenzoyl)-2-(4-nitrophenyl)-4H-chromen-4-one] | 290 to 291 °C | – | – | 13.75 ± 3.31% | 0.08 ± 0.006 µM Trolox/1 µM of Synthesized Compounds | 8.52 ± 3.89% | 65.1 ± 1.21% | 41.2 ± 2.11% | 59.8 ± 5.77% | 27.5 ± 1.24% | contained anticancer activity | 34.9 µM | 12.5 ± 1.45% | 38.7 ± 5.22% | more toxic | 34.9 ± 2.41 µM | –

Continued, in another order:

melting point | EC50 ([1]; read-out: DPPH517nm EC50 ± SD) | EC50 ([3]; read-out: ABTS734nm EC50 ± SD) | SMILES | DPPH517nm % SA ± SD [1] | FRAP593nm Value ± SD (TE) [2] | ABTS734nm % Scavenging at 500 µM [3] | viability at 24 h, 100 µM [4] | viability at 48 h, 100 µM [4] | viability at 24 h, 100 µM [5] | viability at 48 h, 100 µM [5] | Anticancer activity on cervical cancer cells (HeLa cell; HeLa, 24 h) | IC50 (HeLa cell; Homo sapiens, HeLa, 24 h) | viability at 100 µM (HeLa cell; [6]) | viability at 100 µM (HeLa cell; [7]) | Toxicity in HEK293 cells (HEK293 cells) | IC50 (HeLa cell; 24 h) | Cellular ROS fluorescence intensity vs H2O2-treated cells (HeLa cells)
– | 59 ± 11.2 µM | 13.9 ± 0.74 µM | CC(=O)c1ccc(O)c(O)c1OC(=O)c1ccccc1 [3i, 6-Acetyl-2,3-dihydroxyphenyl benzoate] | 90.55 ± 0.36% | 3.16 ± 0.350 µM Trolox/1 µM of Synthesized Compounds | 78.80 ± 1.14% | 110 ± 1.2% | 107 ± 4.18% | 104.8 ± 0.88% | 84.9 ± 3.05% | – | – | 37.1 ± 1.96% | 99.9 ± 4.19% | – | – | decreased significantly
122 to 124 °C | – | – | CC(=O)c1ccc(O)cc1OC(=O)c1ccco1 [compound 4, 2-Acetyl-5-hydroxyphenyl furan-2-carboxylate] | 0.99 ± 0.71% | 0.00 ± 0.001 µM Trolox/1 µM of Synthesized Compounds | 14.51 ± 1.94% | 97.99 ± 0.4% | 108 ± 2.84% | 85.7 ± 5.6% | 72.2 ± 1.81% | – | – | 91.07 ± 0.65% | 86.1 ± 3.24% | – | – | –
